Data as given in patent US9708314B2, “Heterocyclic amide compound” (NISSAN CHEMICAL INDUSTRIES, LTD., priority 2013, dated 2017).

How the values were obtained:
Format in all cases: in vivo
Monochoria vaginalis = test: Test Example 1: herbicidal activity, application before weed generation in submerged conditions; settings: Application herbicide amount 320 g/ha; Seventeenth Table
Procedure, shortened: (§1)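 Pre-emergence water-surface application under 4 cm flooding, same day as sowing, with rice transplanted at 2.5 leaf stage. Dose given as g/ha. Plants grown at 25° C. to 30° C. and rated three weeks later on a 0 (≤5%) to 5 (≥90%) herbicidal-ratio scale.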

Scirpus juncoides = test: as above; settings: Seventeenth Table; for B: Scirpus juncoides (herbicidal effect grade): Application herbicide amount 320 g/ha
Procedure, shortened: as §1

Leptochloa chinensis = test: Test Example 3: herbicidal effect by application to foliage (Wagner pot, water depth 0.1-0.5 cm); settings: Nineteenth Table, application to foliage
Procedure, shortened: (§2)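 Scores (0–5) reflect herbicidal ratio three weeks after a foliar spray: 0 is 5% or less, 5 is 90% or more. Plants had grown 14 days in alluvial soil pots in a 25–30 °C greenhouse before treatment with water-diluted emulsion at a set g/ha.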

[1] = system: Echinochloa crus-galli var. crus-galli; test: as above; settings: Nineteenth Table, application to foliage
Procedure, shortened: as §2

Cyperus difformis = test: as above; settings: Nineteenth Table; application to foliage; application herbicide amount 320 g/ha
Procedure, shortened: as §2

[2] = system: Echinochloa oryzacola Vasing.; test: Test Example 1: herbicidal activity, application before weed generation in submerged conditions; settings: Seventeenth Table; for A: Echinochloa oryzicola Vasing. (herbicidal effect grade): Application herbicide amount 320 g/ha
Procedure, shortened: as §1

[3] = application herbicide amount 320 g/ha
[4] = application herbicide amount 260 g/ha

SMILES | C: Monochoria vaginalis (herbicidal effect grade) (Monochoria vaginalis) | B: Scirpus juncoides (herbicidal effect grade) (Scirpus juncoides) | D (herbicidal effect grade) (Leptochloa chinensis; [3]) | H (herbicidal effect grade) [1, 3] | E (herbicidal effect grade) (Cyperus difformis) | A (Echinochloa oryzicola Vasing.) herbicidal ratio grade [2, 4] | B (Scirpus juncoides) herbicidal ratio grade (Scirpus juncoides; [4]) | D (herbicidal effect grade) (Leptochloa chinensis; [4]) | H (herbicidal effect grade) [1, 4] | A: Echinochloa oryzicola Vasing. (herbicidal effect grade) [2]
O=C(Nc1nnco1)c1ccc(C(F)(F)F)n2c(SCc3ccc(Cl)nc3)nnc12 [1-157] | 2 (Herbicidal ratio of 20% or more and less than 40%) | 3 (Herbicidal ratio of 40% or more and less than 70%) | 3 (Herbicidal ratio of 40% or more and less than 70%) | 4 (Herbicidal ratio of 70% or more and less than 90%) | 4 (Herbicidal ratio of 70% or more and less than 90%) | – | – | – | – | –
O=C(Nc1nnco1)c1ccc(C(F)(F)F)n2c(SC3CCCC3)nnc12 [1-155] | 3 (Herbicidal ratio of 40% or more and less than 70%) | 4 (Herbicidal ratio of 70% or more and less than 90%) | 2 (Herbicidal ratio of 20% or more and less than 40%) | 1 (Herbicidal ratio of 5% or more and less than 20%) | 5 (Herbicidal ratio of 90% or more (almost completely withered)) | – | – | – | – | –
Cn1nnnc1NC(=O)c1ccc(C(F)(F)F)n2c(C=O)nnc12 [2-109] | – | – | – | – | – | 2 (Herbicidal ratio of 20% or more and less than 40%) | 3 (Herbicidal ratio of 40% or more and less than 70%) | 5 (Herbicidal ratio of 90% or more (almost completely withered)) | 3 (Herbicidal ratio of 40% or more and less than 70%) | –
Cn1nnnc1NC(=O)c1ccc(C(F)(F)F)n2c(-c3cc(Cl)cc(Cl)c3)nnc12 [2-064] | 2 (Herbicidal ratio of 20% or more and less than 40%) | – | 4 (Herbicidal ratio of 70% or more and less than 90%) | 1 (Herbicidal ratio of 5% or more and less than 20%) | 5 (Herbicidal ratio of 90% or more (almost completely withered)) | – | – | – | – | 5 (Herbicidal ratio of 90% or more (almost completely withered))
COc1cc(OC)cc(-c2nnc3c(C(=O)Nc4nnnn4C)ccc(C(F)(F)F)n23)c1 [2-063] | 5 (Herbicidal ratio of 90% or more (almost completely withered)) | – | 5 (Herbicidal ratio of 90% or more (almost completely withered)) | 5 (Herbicidal ratio of 90% or more (almost completely withered)) | 5 (Herbicidal ratio of 90% or more (almost completely withered)) | – | – | – | – | 5 (Herbicidal ratio of 90% or more (almost completely withered))
Cc1nnc(NC(=O)c2ccc(C(F)(F)F)n3c(SC4CCCC4)nnc23)o1 [1-154] | 2 (Herbicidal ratio of 20% or more and less than 40%) | 3 (Herbicidal ratio of 40% or more and less than 70%) | 2 (Herbicidal ratio of 20% or more and less than 40%) | 3 (Herbicidal ratio of 40% or more and less than 70%) | 4 (Herbicidal ratio of 70% or more and less than 90%) | – | – | – | – | –
Cc1nnc(NC(=O)c2ccc(C(F)(F)F)n3c(SCc4ccc(Cl)nc4)nnc23)o1 [1-156] | 0 (Herbicidal ratio of 5% or less (almost no effect)) | 2 (Herbicidal ratio of 20% or more and less than 40%) | 2 (Herbicidal ratio of 20% or more and less than 40%) | 3 (Herbicidal ratio of 40% or more and less than 70%) | 2 (Herbicidal ratio of 20% or more and less than 40%) | – | – | – | – | –
